Where only a bound is given, the exact number is not on record here.

The target in one assay is T1, Factor XIIa (Homo sapiens, UniProt P00748).
T1 sequence (P00748 373-615 limits assumed): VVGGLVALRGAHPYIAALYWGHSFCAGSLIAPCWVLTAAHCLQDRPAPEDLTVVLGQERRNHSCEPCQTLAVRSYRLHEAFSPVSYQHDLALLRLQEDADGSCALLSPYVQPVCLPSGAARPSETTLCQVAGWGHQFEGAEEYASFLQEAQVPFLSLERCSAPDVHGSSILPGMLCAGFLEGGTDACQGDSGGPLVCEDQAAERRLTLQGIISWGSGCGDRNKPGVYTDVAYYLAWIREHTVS
The assay can be described thus: Inhibition of Factor XIIa, PFR-AMC substrate. Type of assay: biochemical.

The target in the next assay is Bovine chymotrypsin (Bos taurus, UniProt P00766). The assay can be described thus: Inhibition of chymotrypsin, AAPF-pNA substrate. Conditions: Chymotrypsin (5 nM), AAPF-pNA 0.08 mM. Type of assay: biochemical.

In the case of `CC[C@H](C)[C@H](N)C(=O)N[C@@H](Cc1c[nH]cn1)C(=O)N[C@@H](CC(=O)O)C(=O)N[C@@H](Cc1ccccc1)C(=O)N[C@H]1CSSC[C@@H](C(=O)N[C@@H](C)C(=O)N[C@H](C(=O)N[C@H](C(=O)O)C(C)C)[C@@H](C)O)NC(=O)[C@H](CCCCN)NC(=O)[C@H](CCCCN)NC(=O)[C@H](CC(C)C)NC(=O)[C@@H]2CSSC[C@@H]3NC(=O)[C@H](CO)NC(=O)CNC(=O)[C@H](CC(=O)O)NC(=O)[C@H]([C@@H](C)O)NC(=O)[C@H](C(C)C)NC(=O)[C@H](CC(N)=O)NC(=O)[C@H](Cc4ccc(O)cc4)NC(=O)[C@H](Cc4c[nH]c5ccccc45)NC(=O)[C@H](Cc4c[nH]c5ccccc45)NC(=O)[C@H](CCCNC(=N)N)NC(=O)[C@@H]4CCCN4C(=O)[C@H](CCSC)NC(=O)[C@H](CO)NC(=O)[C@H](C)NC(=O)[C@H](CCCNC(=N)N)NC(=O)[C@H](CSSC[C@H](NC(=O)CNC(=O)CNC(=O)[C@H](Cc4ccc(O)cc4)NC(=O)[C@H](C(C)C)NC(=O)[C@H](Cc4ccccc4)NC(=O)[C@H](CC(C)C)NC(=O)[C@H](CCC(N)=O)NC3=O)C(=O)N[C@@H](CC(=O)O)C(=O)NCC(=O)N[C@@H](CC(N)=O)C(=O)N[C@@H](CO)C(=O)N[C@@H](CC(N)=O)C(=O)N[C@@H](CC(N)=O)C(=O)N[C@@H](Cc3ccc(O)cc3)C(=O)N[C@@H](CC(C)C)C(=O)N[C@@H]([C@@H](C)O)C(=O)N[C@@H](CCCCN)C(=O)N[C@@H](CCC(=O)O)C(=O)N[C@@H](CCC(=O)O)C(=O)N2)NC(=O)[C@H](CCCNC(=N)N)NC(=O)CNC(=O)[C@H](C(C)C)NC(=O)[C@H](C(C)C)NC(=O)[C@H](CCCCN)NC(=O)[C@H](CO)NC(=O)[C@H](C(C)C)NC(=O)[C@H](CC(C)C)NC1=O` [bikunin (7–64)], the Ki on Factor XIIa is > 300 nM; at Bovine chymotrypsin, 0.6 nM.

What is called Ki is a measure of affinity in units of concentration, obtained from inhibition or displacement. Higher therefore signals lower affinity.

The values above are taken from patent US7019123B2, “Human bikunin” (Bayer Corporation, priority 1996, dated 2006).
